Where two headings read alike, the source gives them in different places.
How the values were obtained:
[1] = test system: P. falciparum strain Dd2 gametocytes; test: alamarBlue gametocyte viability assay, strain Dd2
[2] = test system: P. falciparum strain 3D7 gametocytes; test: alamarBlue gametocyte viability assay, strain 3D7
HepG2 cells = test: Cytotoxicity in mammalian HepG2 cell line; conditions: for % Max response: HepG2; for Emax: HepG2, read-out: % Max response
[3] = test system: P. falciparum strain HB3 gametocytes; test: alamarBlue gametocyte viability assay, strain HB3
[4] = read-out: Dd2-IC50, Table 3, 11 concentrations, 1:3 dilution, three times
[5] = read-out: 3D7-IC50, Table 3, 11 concentrations, 1:3 dilution, three times
[6] = read-out: Gametocyte IC50, mean of at least 3 independent experiments, P. falciparum 3D7 gametocyte
[7] = read-out: HB3-IC50, Table 3, 11 concentrations, 1:3 dilution, three times
[8] = read-out: IC50 (μM) in HepG2, Table 2, Inactive = no significant activity at highest tested concentration (46 μM)
[9] = read-out: IC50 (μM) in HepG2 cells, Table 4, Inactive = no significant activity at highest tested concentration (46 μM)
[10] = Plasmodium falciparum, 3D7, read-out: 3D7-IC50
[11] = Homo sapiens, HepG2, read-out: IC50 (μM) in HepG2 cells
[12] = Plasmodium falciparum, HB3, read-out: HB3-IC50
[13] = Plasmodium falciparum, DD2, read-out: Dd2-IC50
[14] = Plasmodium falciparum, 3D7, read-out: Gametocyte IC50
[15] = Homo sapiens, HepG2, read-out: IC50 (μM) in HepG2
[16] = Plasmodium falciparum, HB3, read-out: HB3-IC50, Table 3, 11 concentrations, 1:3 dilution, three times

Compound: CCN(CCO)CCCOc1ccc2c(Nc3cc(CC(=O)Nc4cccc(F)c4)[nH]n3)ncnc2c1 [AZD-1152-HQPA]
- IC50 [1, 4]: 1.48 µM
- IC50 [2, 5]: 0.743 µM
- IC50 [2, 6]: 0.743 µM
- % Max response (HepG2 cells; Table 2): 11%
- IC50 (μM) in HepG2 (HepG2 cells; Table 2, Inactive = no significant activity at highest tested concentration (46 μM)): Inactive
- % Max response (HepG2 cells; Table 4): 11%
- IC50 (μM) in HepG2 cells (HepG2 cells; Table 4, Inactive = no significant activity at highest tested concentration (46 μM)): Inactive
- IC50 [3, 7]: 1.48 µM

Compound: CC(=O)OC[C@H]1O[C@@H]([S-])[C@H](OC(C)=O)[C@@H](OC(C)=O)[C@@H]1OC(C)=O.CCP(CC)CC.[Au+] [Auranofin]
- IC50 [1, 4]: 1.18 µM
- IC50 [2, 5]: 0.935 µM
- IC50 [2, 6]: 0.935 µM
- % Max response (HepG2 cells; Table 2): −98%
- % Max response (HepG2 cells; Table 4): −98%
- IC50 (HepG2 cells; [8]): 9.35 µM
- IC50 (HepG2 cells; [9]): 9.35 µM
- IC50 [3, 7]: 1.05 µM

Compound: CC1(C)OC2=C(C(=O)c3ccccc3C2=O)[C@H](NCc2ccccc2)[C@@H]1O [CAY10581]
- IC50 [1, 4]: 2.35 µM
- IC50 [2, 5]: 0.743 µM
- IC50 [2, 6]: 0.743 µM
- % Max response (HepG2 cells; Table 2): −86%
- % Max response (HepG2 cells; Table 4): −86%
- IC50 (HepG2 cells; [8]): 17.1 µM
- IC50 (HepG2 cells; [9]): 17.1 µM
- IC50 [3, 7]: 0.662 µM

Compound: C#Cc1cccc(Nc2ncnc3cc(OC)c(OCCCCCCC(=O)NO)cc23)c1 [CUDC-101]
- IC50 [2, 10]: 0.8 µM
- IC50 (HepG2 cells; [11]): 6.79 µM
- % Max response (HepG2 cells; Table 4): −76%
- IC50 [3, 12]: 0.152 µM
- fold more potent against HB3 compared to 3D7 ([3]; gametocytes): 5.5 fold

Compound: CCN(CC)CCCC(C)Nc1ccnc2cc(Cl)ccc12 (stereo not drawn) [Chloroquine diphosphate]
- IC50 [1, 13]: 0.935 µM
- IC50 [2, 10]: 0.2 µM
- IC50 [3, 12]: 0.935 µM

Compound: Cc1cc(NC2CCCCC2)nc(-n2nc(C)cc2C)n1 [CyPPA]
- IC50 [1, 4]: 0.59 µM
- IC50 [2, 5]: 0.469 µM
- IC50 [3, 7]: 0.743 µM

Compound: S=C(SSC(=S)N1CCCCC1)N1CCCCC1 [Dicyclopentamethylenethiuram]
- IC50 [1, 4]: 0.743 µM
- IC50 [2, 5]: 0.2 µM
- IC50 [3, 7]: 0.743 µM

Compound: COc1cc(NC(C)CCCN)c2ncccc2c1 (stereo not drawn) [Primaquine diphosphate]
- IC50 [1, 13]: 1.08 µM
- IC50 [3, 12]: 0.679 µM

Compound: COc1cc(NC(C)CCCN)c2ncccc2c1 (stereo not drawn) [Primaquine, primaquine]
- IC50 ([1]; Plasmodium falciparum, DD2, read-out: IC50 against Dd2 gametocytes): 1.08 µM
- IC50 (HepG2 cells; [11]): 17.8 µM
- IC50 ([3]; Plasmodium falciparum, HB3, read-out: IC50 against HB3 gametocytes): 0.68 µM

Compound: C/C=C1\NC(=O)[C@H]2CSSCC/C=C/[C@H](CC(=O)N[C@H](C(C)C)C(=O)N2)OC(=O)[C@H](C(C)C)NC1=O [Romidepsin]
- IC50 [2, 10]: 0.2 µM
- IC50 [2, 14]: 0.637 µM
- Emax (HepG2 cells; Homo sapiens): -98%
- IC50 (HepG2 cells; [15]): 0.074 µM
- IC50 (HepG2 cells; [11]): 0.074 µM
- IC50 [3, 16]: 0.148 µM

Compound: Cl.Cl.Cl.Cl.Cl.Cl.N.N.N.N.N.N.N.N.N.N.N.N.N.N.[O-2].[O-2].[Ru+3].[Ru+3].[Ru+4] [Ruthenium red]
- IC50 [1, 4]: 0.526 µM
- IC50 [2, 5]: 0.935 µM
- IC50 [3, 7]: 0.264 µM

Compound: CC[C@@H](C(=O)[C@@H](C)[C@@H](O)[C@H](C)[C@@H]1O[C@@H]([C@@H](CC)C(=O)O)CC[C@@H]1C)[C@H]1O[C@]2(C=C[C@@H](O)[C@]3(CC[C@@](C)([C@H]4CC[C@](O)(CC)[C@H](C)O4)O3)O2)[C@H](C)C[C@@H]1C [Salinomycin monosodium]
- IC50 [1, 4]: 0.296 µM
- IC50 [2, 5]: 0.1 µM
- IC50 [3, 7]: 0.469 µM

Compound: CC[C@@H](C(=O)[C@@H](C)[C@@H](O)[C@H](C)[C@@H]1O[C@@H]([C@@H](CC)C(=O)O)CC[C@@H]1C)[C@H]1O[C@]2(C=C[C@@H](O)[C@]3(CC[C@@](C)([C@H]4CC[C@](O)(CC)[C@H](C)O4)O3)O2)[C@H](C)C[C@@H]1C [Salinomycin sodium]
- IC50 [2, 10]: 0.1 µM
- IC50 [2, 14]: 0.194 µM
- Emax (HepG2 cells; Homo sapiens): -69%
- IC50 (HepG2 cells; [15]): 29.6 µM
- IC50 (HepG2 cells; [11]): 29.6 µM
- IC50 [3, 16]: 0.372 µM

Compound: CCN(CC)C(=S)SSC(=S)N(CC)CC [Tetraethylthiuram disulfide]
- IC50 [1, 13]: 0.296 µM
- IC50 [3, 12]: 0.148 µM

Compound: CCC(=O)N1CCN(c2ccc(-n3c(=O)ccc4cnc5ccc(-c6cnc7ccccc7c6)cc5c43)cc2C(F)(F)F)CC1 [Torin-1]
- IC50 [1, 4]: 5.26 µM
- IC50 [2, 5]: 6.62 µM
- IC50 [3, 7]: 3.72 µM

Source: patent US20160264570A1, “METHOD OF BLOCKING TRANSMISSION OF MALARIAL PARASITE” (THE UNITED STATES OF AMERICA, AS REPRESENTED BY THE …, priority 2013, published 2016)
